From patent US12171203B2, “Transgenic biosensor” (KDT, Inc., priority 2011, dated 2024)
pEC50: −log10 of the molar value.

Legend:
Type in all cases: in vivo, C. elegans
[1] = test system: Phsp-16::hRFP reporter; assay: fluorescent plate reader assay of toxin dosage sensitivity, hsp-16::hRFP nematodes; settings: 24 hr exposure, ~600 worms per well, assayed in triplicate; read-out: EC50 of red fluorescence response of Phsp-16::hRFP reporter
Text: FIGS. 3A, B, and C show the fluorescence plate-reader sensitivity and toxin response.
For instance, a protein homeostasis reporter was created by fusing heat shock protein to a nuclear localized red fluorescent protein (hsp-16.42::hRFP)(the materials and methods for the construction of the transgenic organism are described in more detail in the examples below). Exposure to heat toxicity generates induction of nuclear localization. This heat shock gene reporter was screened for gene induction capacity using a heat-shock protocol. The hsp-16::hRFP construct is exposed to a 1 hr incubation at 30 C. Gene induction was screened 4 to 24 hrs after heat shock. Significant red fluorescence is observed in the nuclei of heat-shocked worm relative to control (FIG. 5).
Toxin sensitivity of hsp-16 was confirmed with exposure to heavy metals and metalloids. To develop a rapid screen for the hsp-16::hRFP expression, a fluorescent plate reader assay was developed. To test the sensitivity of this assay, a titrating concentration of nematodes were exposed to heat shock. The worms were transferred to a 96 well plate and red fluorescence was quantified. Good sensitivity for a red fluorescence signal occurs at concentrations of 50 or more worms (FIG. 3A). Next, the toxin dosage sensitivity was measured.

[2] = test system: metallothionein gene (mtl-2) promoter reporter; assay: two-color nematode biosensor panel, plate reader assay, mtl-2 reporter; settings: cadmium 1 mM, NGM plates, 15 hrs; population-normalized change relative to unexposed control
Text: (§1) Responses are population-normalized changes relative to unexposed control. Error bars indicate […] of 2 to 6 independent measurements. The label “2 line” indicates data derived from combining responses of two independently-derived MosSCI lines for the same reporter.
(§2) The seven different promoters used to create the lines were obtained from genes involved in oxidative stress response. Two genes used were alpha cystallins which respond to cytoplasmic heat shock (hsp-16.2 and hsp-16.41) (David et al. Environ. Toxicol. Chem 2003 January; 22(1):111-118; Hong et al. J. Mol. Biol 2004 November; 344(2):369-381; Candido E P M. Prog. Mol. Subcell. Biol 2002; 28:61-78; Dengg et al. J Pharmacol Toxicol Methods 2004 December; 50(3):209-214; and Strayer et al. FASEB J 2003 December; 17(15):2305-2307). […] The resulting hsRFP reporter construct expresses red fluorescence in cell nuclei. […]
(§3) Changes in expression were quantified with a plate reader assay. […]

[3] = test system: ugt-1 promoter reporter; assay: two-color nematode biosensor panel, plate reader assay, ugt-1 reporter; settings: cadmium 1 mM, NGM plates, 15 hrs; population-normalized change relative to unexposed control
Text: as §1, §2, §3

[4] = test system: hsp-16's (hsp-16.2, hsp-16.41) promoter reporters; assay: two-color nematode biosensor panel, plate reader assay, hsp-16 reporters; settings: cadmium 1 mM, NGM plates, 15 hrs; population-normalized change relative to unexposed control
Text: as §1, §2, §3

[5] = test system: hsp-4 promoter reporter; assay: two-color nematode biosensor panel, plate reader assay, hsp-4 reporter; settings: cadmium 1 mM, NGM plates, 15 hrs; population-normalized change relative to unexposed control
Text: as §1, §2, §3

[6] = test system: nematode population; assay: chronic toxin exposure, effect on nematode population size; settings: chronic exposure for 72 hrs, various concentrations
Description: FIGS. 4A, B, and C show the population effects of chronic toxin exposure.
Advantageously, the transgenic animals described in these examples can have a control reporter (e.g., constitutively expressed). Exposure to some selected agents or toxins can lead to shortened life-span, lower brood sizes or other effects that need to be controlled. The problem becomes most pronounced in chronic assays. […] Thus, it was determined a control for population mass differences between assay wells is desirable. Introduction of a second constitutively expressed reporter gene can be used to control for various population differences.

Compound	pEC50 [1]	induction of metallothionein gene expression (reporter) [2]	induction of expression from ugt-1 reporter [3]	induction of expression from hsp-16's reporters [4]	induction of expression from hsp-4 reporter [5]	effect on population size [6]
[Cl][Cd][Cl] [cadmium, cadmium chloride]	~3.70	primarily induced	only mildly induced	only mildly induced	only mildly induced	significant population effects
sodium bis-arsenite [arsenic]	~2.82	–	–	–	–	–
